Laboratory results published in patent publication US20230365590A1, “BIPHENYL COMPOUND AS IMMUNOMODULATOR, PREPARATION METHOD THEREFOR AND APPLICATION THEREOF” (SHENZHEN CHIPSCREEN BIOSCIENCES CO., LTD., priority 2020, published 2023).

Tests used:
[1] = molecular target: PD-1/PD-L1 binding (recombinant human PD-L1-Fc fusion protein and His-PD-1 protein) (Homo sapiens (Human), UniProt Q9NZQ7); test: In vitro inhibitory activity against PD-1/PD-L1 binding (HTRF); settings: read-out: IC50 for inhibiting PD-1/PD-L1 binding in vitro
Chain of PD-1/PD-L1 binding (recombinant human PD-L1-Fc fusion protein and His-PD-1 protein) (Q9NZQ7 19-239): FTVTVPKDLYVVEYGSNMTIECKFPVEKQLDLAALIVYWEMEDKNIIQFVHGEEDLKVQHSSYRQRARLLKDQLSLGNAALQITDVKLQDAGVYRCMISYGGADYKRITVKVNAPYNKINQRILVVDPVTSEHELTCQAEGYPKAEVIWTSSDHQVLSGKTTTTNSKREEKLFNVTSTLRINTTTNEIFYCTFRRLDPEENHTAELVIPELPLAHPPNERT
Source text: Homogeneous time resolved fluorescence method (HTRF): This method uses the recombinant human PD-L1 protein fused with hFc tag and the recombinant human PD-1 protein fused with His tag, which are interacting ligands and receptors. When the anti-hFc antibody containing chelated Eu tag and the anti-His antibody containing XL665 fluorescein tag are used to bind with the above two corresponding tags respectively and are excited by 320 nm laser, energy can be transferred from Eu element to XL665 fluorescein due to ligand receptor binding, and the XL665 fluorescein is excited to emit light with a wavelength of 665 nm. When an inhibitor for inhibiting interaction of PD-L1 and PD-1 is added, the binding of the ligand and the receptor is destroyed, causing a long distance between Eu and XL665. As a result, the energy cannot be transferred, and the XL665 fluorescein will not be excited.
(§1) Experimental Materials and Devices The recombinant human PD-1 protein with His tag (His-PD-1 protein, Cat #: 10377-H08H-50) and the recombinant human PD-L1-Fc fusion protein (PD-L1-Fc fusion protein, Cat #: 10084-H02H-100) were purchased from Sino Biological Inc., anti-hFc-Eu^3+ antibody and anti-His-XL665 antibody were purchased from Cisbio, and other related reagents such as a diluent buffer (diluent buffer 5 (Cat #: 62DL5DDC) and a detection buffer (PPI-European detection buffer, Cat #: 61DB9RDF) were purchased from Cisbio. Fluorescence detector Tecan (Spark 10M) was purchased from Tecan Company in Switzerland.
The experiment process was carried out according to the flow required in the operating manual of the test reagent. The process was as follows: • (1) Experiment preparation: A test compound was diluted to different concentration gradients with the dilution buffer (the highest final concentration in a 20 μL final reaction system was 10 μM). The His-PD-1 protein was diluted to 800 nM (the final concentration in the 20 final reaction system was 100 nM). The PD-L1-Fc fusion protein was diluted to 16 nM (the final concentration was 2 nM). […] All tests were conducted by use of multiple holes. • (4) The fluorescence detector Tecan (Spark 10M) was used to detect the fluorescence signal of each hole. The excitation wavelength was 320 nm, and the emission wavelengths for detection were 620 nm and 665 nm, respectively. The strength of PD-1/PD-L1 binding refers to a fluorescence signal ratio Em665/Em620. • (5) Calculation formula of binding inhibition rate of test compound: Inhibition rate (%)=[1−(fluorescence signal ratio of detected hole−fluorescence signal ratio of 100% inhibition negative control)]/(fluorescence signal ratio of 0% inhibition positive control−fluorescence signal ratio of 100% inhibition negative control)×100%. The 50% inhibition concentration (IC50) was calculated after the PD-1/PD-L1 binding inhibition rates of the test compound with different concentration gradients were calculated respectively.

[2] = molecular target: CD80/PD-L1 binding (recombinant human His-CD80 protein and PD-L1-Fc fusion protein) (Homo sapiens (Human), UniProt Q9NZQ7); test: In vitro inhibitory activity against CD80/PD-L1 binding (HTRF); settings: read-out: IC50 for inhibiting CD80/PD-L1 binding in vitro
Chain of CD80/PD-L1 binding (recombinant human His-CD80 protein and PD-L1-Fc fusion protein) (Q9NZQ7 19-239): as above
Source text: In addition to PD-1, PD-L1 can also play an immune inhibition role by binding to CD80. Similarly, in vitro CD80/PD-L1 binding or binding inhibition test can also be conducted by homogeneous time-resolved fluorescence (HTRF). When the anti-hFc-Eu^3+ antibody and the anti-His-XL665 antibody are used to bind to the hFC tag fused to PD-L1 and the His tag fused to CD80 respectively, and after excitation with 320 nm laser, energy can be transferred from Eu element to XL665 fluorescein due to the binding of PD-L1 and CD80 to excite the XL665 fluorescein to emit light. When an inhibitor for inhibiting interaction of PD-L1 and CD80 is added, the binding of PD-L1 and CD80 is destroyed, causing a long distance between Eu and XL665. As a result, the energy cannot be transferred, and the XL665 fluorescein will not be excited.
as §1, with “The” for “Experimental Materials and Devices The”, “CD80” for “PD-1”, “(His-CD80” for “(His-PD-1”, “10698-H08H-100)” for “10377-H08H-50)”, “(Diluent” for “(diluent”
The experiment process was carried out according to the flow required in the operating manual of the test reagent (Invitrogen). The process was as follows: • (1) Experiment preparation: A test compound was diluted to different concentration gradients with the dilution buffer (the highest final concentration in a 20 μL final reaction system was 10 μM). The His-CD80 protein was diluted to 800 nM (the final concentration in the 20 final reaction system was 100 nM). The PD-L1-Fc fusion protein was diluted to 16 nM (the final concentration was 2 nM). The anti-His-XL665 antibody and the anti-hFc-Eu^3+antibody were diluted 20 times and 100 times respectively with the detection buffer according to reagent requirements. • (2) First, 5 μL of the test compound, 2.5 μL of the His-CD80 fusion protein and 2.5 μL of the […] fusion protein solution were well mixed and incubated at room temperature for 15 min; then, 5 μL of the anti-His-XL665 antibody and 5 μL of the anti-hFc-Eu^3+antibody were added to the system and further incubated for 3 h before test. • (3) During the test reaction, control groups were set, including a 0% inhibitory positive control without adding the test compound and a 100% inhibitory negative control without adding the CD80 protein. All tests were conducted by use of multiple holes. • (4) The fluorescence detector Tecan (Spark 10M) was used to detect the fluorescence signal of each hole. The excitation wavelength was 320 nm, and the emission wavelengths for detection were 620 nm and 665 nm, respectively. The strength of CD80/PD-L1 binding refers to a fluorescence signal ratio Em665/Em620. • (5) Calculation formula of binding inhibition rate of test compound: Inhibition rate (%)=[1−(fluorescence signal ratio of detected hole−fluorescence signal ratio of 100% inhibition negative control)]/(fluorescence signal ratio of 0% inhibition positive control — fluorescence signal ratio of 100% inhibition negative control)×100%. The 50% inhibition concentration (IC50) was calculated after the CD80/PD-L1 binding inhibition rates of the test compound with different concentration gradients were calculated respectively.

Structure (SMILES) | IC50 [1] [nM] | IC50 [2] [nM]
COCC12CCC(CCN3CCc4c(nc(C(=O)Nc5cccc(-c6cccc(NC(=O)c7nc8c(n7C)CCN(CCC79CCC(C(=O)O)(CC7)C9)C8)c6C)c5Cl)n4C)C3)(CC1)C2 [Compound I-4, 4-(2-(2-((2′-chloro-3′-(5-(2-(4-(methoxymethyl)bicyclo[2. 2.1]heptan-1-yl)ethyl)-1-methyl-4,5,6,7-tetrahydro-1H-imidazo[4,5-c]pyridine-2-carboxamido)-2-methyl-[1 ,1′-biphenyl]-3-yl)carbamoyl)-1-methyl-1,4,6,7-tetrahydro-5H-imidazo[4,5-c]pyridin-5-yl)ethyl)bicyclo[2.2.1]heptane-1-carboxylic acid] | 1.89 | 2.78
COCC12CCC(CCCN3CCc4c(nc(C(=O)Nc5cccc(-c6cccc(NC(=O)c7nc8c(n7C)CCN(CCC79CCC(C(=O)O)(CC7)C9)C8)c6C)c5Cl)n4C)C3)(CC1)C2 [Compound I-1, 4-(2-(2-((2′-chloro-3′-(5-(3-(4-(methoxymethyl)bicyclo[2. 2.1]heptan-1-yl)propyl)-1-methyl-4,5,6,7-tetrahydro-1H-imidazo[4,5-c]pyridine-2-carboxamido) -2-methyl-[1,1′-biphenyl]-3-yl)carbamoyl)-1-methyl-1,4,6,7-tetrahydro-5H-imidazo[4,5-c]pyridin-5-yl)ethyl)bicyclo[2.2.1]heptane-1-carboxylic acid] | 1.47 | 0.84
COCC12CCC(CN3CCc4c(nc(C(=O)Nc5cccc(-c6cccc(NC(=O)c7nc8c(n7C)CCN(CCC79CCC(C(=O)O)(CC7)C9)C8)c6Cl)c5Cl)n4C)C3)(CC1)C2 [Compound I-8, 4-(2-(2-((2,2′-dichloro-3′-(5-((4-(methoxymethyl)bicyclo[2.2.1]heptan-1-yl)methyl)-1-methyl-4,5,6,7-tetrahydro-1H-imidazo[4,5-c]pyridine-2-carboxamido)-[1, 1′-biphenyl]-3-yl)carbamoyl)-1-methyl-1,4,6,7-tetrahydro-5H-imidazo[4,5-c]pyridin-5-yl)ethyl)bicyclo[2.2.1]heptane-1-carboxylic acid] | 3.7 | 3.4
COCC12CCC(CCN3CCc4c(nc(C(=O)Nc5cccc(-c6cccc(NC(=O)c7nc8c(n7C)CCN(CCC79CCC(C(=O)O)(CC7)C9)C8)c6Cl)c5Cl)n4C)C3)(CC1)C2 [Compound I-6, 4-(2-(2-((2,2′-dichloro-3′-(5-(2-(4-(methoxymethyl)bicyclo[2.2.1]heptan-1-yl)ethyl)-1-methyl-4,5,6,7-tetrahydro-1H-imidazo[4,5-c]pyridine-2-carboxamido)-[1, 1′-biphenyl]-3-yl)carbamoyl)-1-methyl-1,4,6,7-tetrahydro-5H-imidazo[4,5-c]pyridin-5-yl)ethyl)bicyclo[2.2.1]heptane-1-carboxylic acid] | – | 0.86

The next lines start with the values.

IC50 [1] [nM] | IC50 [2] [nM] | Structure (SMILES)
2.35 | 2.16 | COCC12CCC(CCN3CCc4c(nc(C(=O)Nc5cccc(-c6cccc(NC(=O)c7nc8c(n7C)CCN(CCC79CCC(C(=O)O)(CC7)C9)C8)c6Cl)c5C)n4C)C3)(CC1)C2 [Compound I-5, 4-(2-(2-((2-chloro-3′-(5-(2-(4-(methoxymethyl)bicyclo[2.2.1]heptan-1-yl)ethyl)-1-methyl-4,5,6,7-tetrahydro-1H-imidazo[4,5-c]pyridine-2-carboxamido)-2′-methyl-[1,1′-biphenyl]-3-yl)carbamoyl)-1-methyl-1,4,6,7-tetrahydro-5H-imidazo [4,5-c]pyridin-5-yl)ethyl)bicyclo[2.2.1]heptane-1-carboxylic acid]
1.13 | 0.62 | Cn1c(C(=O)Nc2cccc(-c3cccc(NC(=O)c4nc5c(n4C)CCN(CCC46CCC(C(=O)O)(CC4)C6)C5)c3Cl)c2F)nc2c1CCN(CCC13CCC(COC(F)F)(CC1)C3)C2 [Compound I-10, 4-(2-(2-((2-chloro-3′-(5-(2-(4-((difluoromethoxy)methyl)bicyclo[2.2.1]heptan-1-yl)ethyl)-1-methyl-4,5,6,7-tetrahydro-1H-imidazo[4,5-c]pyridine-2-carboxamido)-2′-fluoro-[1,1′-biphenyl]-3-yl)carbamoyl)-1-methyl-1,4,6,7-tetrahydro-5H-imidazo[4,5-c]pyridin-5-yl)ethyl)bicyclo[2.2.1]heptane-1-carboxylic acid]
0.88 | 0.41 | COCC12CCC(CCN3CCc4c(nc(C(=O)Nc5cccc(-c6cccc(NC(=O)c7nc8c(n7C)CCN(CCC79CCC(C(=O)O)(CC7)C9)C8)c6Cl)c5F)n4C)C3)(CC1)C2 [Compound I-9, 4-(2-(2-((2-chloro-2′-fluoro-3′-(5-(2-(4-(methoxymethyl)bicyclo[2.2.1]heptan-1-yl)ethyl)-1-methyl-4,5,6,7-tetrahydro-1H-imidazo [4,5-c]pyridine-2-carboxamido)-[1,1′-biphenyl]-3-yl)carbamoyl)-1-methyl-1,4,6,7-tetrahydro-5H-imidazo[4,5-c]pyridin-5-yl)ethyl)bicyclo[2.2.1]heptane-1-carboxylic acid]
1.19 | 0.96 | CCOCC12CCC(CCN3CCc4c(nc(C(=O)Nc5cccc(-c6cccc(NC(=O)c7nc8c(n7C)CCN(CCC79CCC(C(=O)O)(CC7)C9)C8)c6C)c5Cl)n4C)C3)(CC1)C2 [Compound I-3, 4-(2-(2-((2′-chloro-3′-(5-(2-(4-(ethoxymethyl)bicyclo[2.2.1]heptan-1-yl)ethyl)-1-methyl-4,5 ,6,7-tetrahydro-1H-imidazo[4,5-c]pyridine-2-carboxamido)-2-methyl-[1,1′-biphenyl]-3-yl)carbamoyl)-1-methyl-1,4,6,7-tetrahydro-5H-imidazo[4,5-c]pyridin-5-yl)ethyl)bicyclo[2.2.1]heptane-1-carboxylic acid]
